From patent US8436178B2, “Imidazoquinolines with immuno-modulating properties” (AstraZeneca AB, priority 2007, dated 2013)

How the values were obtained:
human TLR7 = target: T1, human TLR7 (Homo sapiens, UniProt Q9NYK1); assay: Human TLR7 assay (SEAP reporter in HEK293 cells); assay type: cell-based; details: SEAP induction in HEK293 cells expressing human TLR7, overnight incubation at 37° C., 0.1% DMSO
T1 construct: expressed in transfected cells; host or cells: HEK293 cell line stably expressing the pNiFty2-SEAP reporter plasmid; TLR7 in pUNO vector, blasticidin selection
T1 sequence (Q9NYK1 27-1049): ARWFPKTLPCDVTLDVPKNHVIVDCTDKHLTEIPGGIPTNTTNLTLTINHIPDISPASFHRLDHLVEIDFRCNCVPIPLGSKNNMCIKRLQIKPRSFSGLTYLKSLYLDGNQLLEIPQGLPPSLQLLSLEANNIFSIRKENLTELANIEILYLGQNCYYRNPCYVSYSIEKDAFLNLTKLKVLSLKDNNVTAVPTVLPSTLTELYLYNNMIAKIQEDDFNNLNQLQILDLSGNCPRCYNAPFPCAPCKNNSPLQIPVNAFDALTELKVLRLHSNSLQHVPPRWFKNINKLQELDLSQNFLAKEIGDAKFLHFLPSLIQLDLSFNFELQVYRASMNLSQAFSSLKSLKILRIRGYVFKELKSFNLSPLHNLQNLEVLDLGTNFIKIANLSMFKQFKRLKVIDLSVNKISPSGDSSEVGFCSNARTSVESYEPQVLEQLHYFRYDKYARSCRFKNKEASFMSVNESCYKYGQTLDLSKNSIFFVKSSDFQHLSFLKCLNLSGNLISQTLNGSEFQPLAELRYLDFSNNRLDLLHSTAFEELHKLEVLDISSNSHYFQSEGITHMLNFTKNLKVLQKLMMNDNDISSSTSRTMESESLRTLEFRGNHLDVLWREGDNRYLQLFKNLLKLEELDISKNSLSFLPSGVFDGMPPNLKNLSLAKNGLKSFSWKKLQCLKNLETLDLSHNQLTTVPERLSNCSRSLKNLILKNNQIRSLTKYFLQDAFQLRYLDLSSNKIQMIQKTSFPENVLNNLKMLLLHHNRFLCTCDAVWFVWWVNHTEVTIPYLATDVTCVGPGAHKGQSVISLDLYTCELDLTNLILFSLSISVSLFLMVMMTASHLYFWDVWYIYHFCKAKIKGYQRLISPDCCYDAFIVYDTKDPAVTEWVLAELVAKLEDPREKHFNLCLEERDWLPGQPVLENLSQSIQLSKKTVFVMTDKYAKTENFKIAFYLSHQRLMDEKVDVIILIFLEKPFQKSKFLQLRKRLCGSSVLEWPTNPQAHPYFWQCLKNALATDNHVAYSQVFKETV
Text: The most common variant sequence of human TLR7 (represented by the EMBL sequence AF240467) was cloned into the mammalian cell expression vector pUNO and transfected into a HEK293 cell line already stably expressing the pNiFty2-SEAP reporter plasmid; integration of the reporter gene was maintained by selection with the antibiotic zeocin. Transfectants with stable TLR7 expression were selected using the antibiotic blasticidin. In this reporter cell-line, expression of secreted alkaline phosphatase (SEAP) is controlled by an NFkB/ELAM-1 composite promoter comprising five NFkB sites combined with the proximal ELAM-1 promoter. TLR signaling leads to the translocation of NFkB and activation of the promoter results in expression of the SEAP gene. TLR7-specific activation was assessed by determining the level of SEAP produced following overnight incubation of the cells at 37° C. with the standard compound in the presence of 0.1% (v/v) dimethylsulfoxide (DMSO). Concentration dependent induction of SEAP production by compounds was expressed as the concentration of compound which produced half of the maximal level of SEAP induction for that compound (pEC50).

Male Brown Norway rats = assay: Antigen-induced pulmonary inflammation in a rat asthma model (OVA challenge, BALF); assay type: in vivo; details: BALF 48 h after challenge, Mean ± SE (n = 8)
Text: Rats were sensitised and challenged to produce allergic airway inflammation in a similar manner to that described by Underwood et al (British Journal of Pharmacology 2002; 137: 263-275, 2002). Male Brown Norway rats were sensitized subcutaneously with ovalbumin (OVA) and aluminum hydroxide on day 0, and challenged with aerosolized OVA solution on day14.

[1] = 0.1 mg/kg intratracheally 24 h before and 24 h after OVA-challenge
[2] = 1 mg/kg intratracheally 24 h before and 24 h after OVA-challenge

| EC50 (human TLR7) [nM] | SMILES | Eosinophiles (cells/BALF) (Male Brown Norway rats; [1]) | IL-5 (pg/ml BALF) (Male Brown Norway rats; [1]) | IL-13 (pg/ml BALF) (Male Brown Norway rats; [1]) | Eosinophiles (cells/BALF) (Male Brown Norway rats; [2]) | IL-5 (pg/ml BALF) (Male Brown Norway rats; [2]) | IL-13 (pg/ml BALF) (Male Brown Norway rats; [2]) |
| --- | --- | --- | --- | --- | --- | --- | --- |
| 79.4 | CCCCc1nc2c(N)nc3ccccc3c2n1CCCN(Cc1ccc(CC(=O)OC)cc1)C(=O)CN(C)C [Example 3, Methyl 2-(4-((N-(3-(4-amino-2-butyl-1H-imidazo[4,5-c]quinolin-1-yl)propyl)-2-(dimethylamino)acetamido)methyl)phenyl)acetate] | 67.2 ± 16.3 | 18.0 ± 8.7 | <4.9 | 36.2 ± 11.3 | 11.3 ± 7.5 | <4.9 |
| 200 | COCCc1nc2c(N)nc3ccccc3c2n1CCCN(Cc1ccc(CC(=O)OC)cc1)C(=O)CN1CCN(CCOC)CC1 [Example 71, Methyl 2-(4-((N-(3-(4-amino-2-(2-methoxyethyl)-1H-imidazo[4,5-c]quinolin-1-yl)propyl)-2-(4-(2-methoxyethyl)piperazin-1-yl)acetamido)methyl)phenyl)acetate] |  |  |  |  |  |  |
| 501 | COCCc1nc2c(N)nc3ccccc3c2n1CCCN(Cc1cccc(CC(=O)OC)c1)C(=O)CN1CCN(C)CC1 [Example 72, Methyl 2-(3-((N-(3-(4-amino-2-(2-methoxyethyl)-1H-imidazo[4,5-c]quinolin-1-yl)propyl)-2-(4-methylpiperazin-1-yl)acetamido)methyl)phenyl)acetate] |  |  |  |  |  |  |
| 501 | COCCc1nc2c(N)nc3ccccc3c2n1CCCN(Cc1cccc(CC(=O)OC)c1)C(=O)CN1CCN(CCOC)CC1 [Example 73, Methyl 2-(3-((N-(3-(4-amino-2-(2-methoxyethyl)-1H-imidazo[4,5-c]quinolin-1-yl)propyl)-2-(4-(2-methoxyethyl)piperazin-1-yl)acetamido)methyl)phenyl)acetate] |  |  |  |  |  |  |
